Results: patent publication US6344208B1, “Pheromone baits for social insects” (priority 1989, dated 2002)

Assays:
Type in all cases: in vivo
Acromyrmex octospinosus = experiment: Research and laboratory trials on behaviour induced by synthetic alarm pheromone components; details: research by the applicant
Source text: Recent research by the applicant on the neotropical leaf-cutting ant Acromyrmex octospinosus has shown that […] components of the alarm pheromone of this ant, namely 3-octanol and 3-octanone, attract nestmates and induce the laying of trails around the source which ensure that nestmates are then attracted towards the source for some time and attack the source on arrival.
It is expected that this surprising effect will be shown by synthetic components of pheromones of other insects, especially social insects.
The synthetic pheromone compounds may therefore be used in food baits in contrast to what would be expected.

Atta sexdens [1] = experiment: Field Trial 3: Mirex sachets with single pheromone component placed 1 metre from nest entrance on active trails; details: Trial 3, 50 μl component on rubber septum, components tested separately
Procedure: (§1) The insecticide bait Mirex was used in all the trials. In Trials 3 and 4 the bait was presented to the ants in black plastic sachets 8 cm^2 placed inside wire cages, which provided protection from cattle, horses, small manamals and birds. The empty cages were placed in the field 24 hours prior to the start of the experiment. The Mire sachets were prepared and a component of mandibular gland alarm pheromone of the ant species concerned was added to the treatment sachets. In Trial 5 the sachets were not placed in cages but were scattered randomly at the cutting site. Five components or the alarm pheromone were tested. Rubber septa, used to provide a slow-release substrate, were dosed with 50 μl of component and then sealed inside the Mirex sachets. Control sachets were sealed with untreated rubber septa. The sachets were transferred immediately to the field sites. The fate of the sachets was then monitored over a 3 day period.
Trial 3: Sachets were placed 1 metre from the nest entrance hole on active trials of A. sexdens. Five synthetic components of the alarm pheromone were tested, separately; citral, farnesol, 6-methyl-5-hepten-2-one, 4-methyl-3-heptanone and geraniol. […] The results for the five synthetic pheromones were pooled.

Atta sexdens [2] = experiment: Field Trial 5: Mirex sachets with single pheromone component scattered randomly at cutting site; details: Trial 5, 50 μl component; for discovery and opening of sachets: sachets over about 10 m^2 where ants were cutting leaves
Procedure: as §1
Trial 5: Sachets containing, separately, citral (E), 4-methyl-3-heptanone H and 6-methyl-5-hepten-2-one (G) were distributed randomly over an area of about 10 m^2 where ants were actively cutting leaves.

Compound | behaviour induced in nestmates by the alarm pheromone component (Acromyrmex octospinosus) | fate of test sachets (Atta sexdens [1]) | discovery and opening of sachets (Atta sexdens [2]) | time until all the bait had been transported back to the nest (Atta sexdens [2]) [min]
CCCCCC(=O)CC [3-octanone] | mainly causes recruitment of ants from the peripheral area | – | – | –
CC(C)=CCCC(C)=CC=O [citral] | – | cut open and the contents transported into the nest | discovered and opened immediately | –
CC(=O)CCC=C(C)C [6-methyl-5-hepten-2-one] | – | cut open and the contents transported into the nest | discovered and opened immediately | –
CC(C)=CCC/C(C)=C/CO [geraniol] | – | cut open and the contents transported into the nest | – | –
CC(C)=CCCC(C)=CCCC(C)=CCO [farnesol] | – | cut open and the contents transported into the nest | – | –
CCCCCC(O)CC (centres unmarked) [3-octanol] | mainly controls attraction to the source, the laying of pheromone trails radiating out from the source, and biting | – | – | –
CCCC(C)C(=O)CC (centres unmarked) [4-methyl-3-heptanone] | – | cut open and the contents transported into the nest | discovered and opened immediately | ≤ 30
